How the values were obtained:
[1] = test system: persistent clinical mastitis; assay: Treatment of persistent clinical mastitis (Test Example 3); type: in vivo, cows; conditions: 60 mL intramuscular injection once a day, after 3 administrations
Protocol: Pulsatilla Saponin B4 injection prepared by the preparation method of Example 3 at a concentration of 50 mg/mL;
The test selected 8 existing cows suffering from clinical mastitis in the dairy farm of Shijiazhuang Tianquan Dairy Cows Co., Ltd. These 8 cows have been treated for about a month but have not been cured (2 of them were close to dry, i.e., almost no milk was produced). These 8 cows have been treated by farm veterinarians, the treatment drugs and methods include udder infusing Cefquinome Sulfate Intramammary Infusion, intravenous injecting cephalosporins injection, and gavage with Gongying San ( ? ), etc.
To study the effect of Pulsatilla Saponin B4 injection on persistent clinical mastitis and the effect of Pulsatilla Saponin B4 injection on latent mastitis.
In the test, the Pulsatilla Saponin B4 injection prepared by the preparation method of Example 3 was used to treat 6 cows with persistent clinical mastitis and 2 cows with persistent clinical mastitis and close to dry. No matter how many udder areas were inflamed, intramuscular injection (60 mL) was taken once a day.

[2] = design: species or system dairy cows; conditions: in vivo
From the text: In addition, during the treatment of dairy cow mastitis, randomly selected the tested Pulsatilla Saponin B4 injection and entrusted the Sichuan Provincial Veterinary Drug Inspection Institute to conduct more than 200 antibiotic tests, and no antibiotic component was detected. […] Pulsatilla Saponin B4 has little effect on the immunoglobulin and inflammatory factors in the cow milk, thus can ensure the stability of the milk composition. In addition, since there is no residue, it will not affect the quality of fresh milk in dairy farms.

C=C(C)C1CC[C@]2(C(=O)O[C@@H]3O[C@H](CO[C@@H]4O[C@H](CO)[C@@H](O[C@@H]5O[C@@H](C)[C@H](O)[C@@H](O)[C@H]5O)[C@H](O)[C@H]4O)[C@@H](O)[C@H](O)C3O)CC[C@]3(C)[C@H](CC[C@@H]4[C@@]5(C)CC[C@H](O[C@@H]6OC[C@H](O)[C@H](O)[C@H]6O[C@@H]6O[C@@H](C)[C@H](O)[C@@H](O)[C@H]6O)C(C)(CO)[C@@H]5CC[C@]43C)[C@H]12 (stereo partly drawn) [Pulsatilla Saponin B4]
Treatment result of cows with persistent clinical mastitis close to dry ([1]; 2 cows close to dry): not effective | Treatment result of cows with persistent clinical mastitis ([1]; 6 cows treated about a month but not cured): four cows were cured, one cow improved significantly, and one cow showed no significant effect | Effect on the immunoglobulin and inflammatory factors in the cow milk [2]: little effect

Source: patent US11793822B2, “Uses of Pulsatilla Chinensis extract in preparing drug for treating viral and/or bacterial diseases” (SICHUAN INLU WEITE PHARMACEUTICAL TECHNOLOGY CO., LTD., priority 2018, dated 2023)
